Data as given in ChEMBL document CHEMBL5620415, “Design, synthesis and anti-hepatic fibrosis activity of novel diphenyl vitamin D receptor agonists” (Eur J Med Chem, 2023).
Each block holds one compound with its values, some of them ahead of it. Active and inactive are the calls of the source. The rule behind the calls is not given here.

Columns and labels:
[1] = Toxicity in CCl4-induced hepatic fibrosis C57BL/6 mouse model assessed as serum hypercalcemia at 100 ug/kg, po five times a week for 2 weeks by calcium assay kit; assay type: organism-based; conditions: in vivo, 0.1 mg/kg, 336 h, dose 100 µg/kg
[2] = system: Mus musculus; assay: Anti-fibrotic effect in CCl4-induced hepatic fibrosis C57BL/6 mouse model assessed as inhibition of proliferation of fibrous tissue at 500 ug/kg, po five times a week for 2 weeks by Hematoxylin-Eosin (H&E) staining based assay; assay type: functional, organism-based; conditions: dose 500.0 µg/kg
[3] = target: T1, Vitamin D3 receptor (Homo sapiens) (UniProt P11473); assay: Binding affinity to human full-length Vitamin D receptor assessed as relative binding affinity at 1 uM incubated for 2 hrs by fluorescence polarization based competitive binding assay relative to calcipotriol; conditions: filed as agonist
T1 sequence (whole entry): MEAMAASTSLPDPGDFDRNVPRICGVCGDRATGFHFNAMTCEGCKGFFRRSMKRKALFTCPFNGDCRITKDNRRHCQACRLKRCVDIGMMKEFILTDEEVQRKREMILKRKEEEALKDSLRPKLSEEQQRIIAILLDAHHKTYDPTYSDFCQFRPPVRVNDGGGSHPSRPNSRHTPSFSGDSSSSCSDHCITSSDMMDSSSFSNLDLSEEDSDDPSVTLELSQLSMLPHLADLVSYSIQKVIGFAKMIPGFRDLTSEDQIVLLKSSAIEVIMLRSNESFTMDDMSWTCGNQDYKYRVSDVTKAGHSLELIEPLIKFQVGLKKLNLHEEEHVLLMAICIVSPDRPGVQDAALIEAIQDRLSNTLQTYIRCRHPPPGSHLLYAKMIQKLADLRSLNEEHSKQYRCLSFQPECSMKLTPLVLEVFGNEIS

[4] = system: Mus musculus; assay: Anti-fibrotic effect in improving CCl4-induced hepatic fibrosis C57BL/6 mouse model assessed as decrease in liver to kidney brightness ratio at 500 ug/kg, po five times a week for 2 weeks by qualitative ultrasound imaging analysis; assay type: functional, organism-based; conditions: dose 500.0 µg/kg
[5] = system: LX-2; assay: Inhibition of TGF-beta1 induced human LX-2 cell activation assessed as inhibition of collagen I expression at 0.5 uM by Western blot analysis relative to control; assay type: functional, cell-based
[6] = system: Mus musculus; assay: Anti-fibrotic effect in CCl4-induced hepatic fibrosis C57BL/6 mouse model assessed as reduction the lesions at 500 ug/kg, po five times a week for 2 weeks by Masson's Trichrome staining based assay; assay type: functional, organism-based; conditions: dose 500.0 µg/kg
[7] = system: Mus musculus; assay: Anti-fibrotic effect in CCl4-induced hepatic fibrosis C57BL/6 mouse model assessed as reduction in hepatic fibrosis lesions at 500 ug/kg, po five times a week for 2 weeks by Masson's Trichrome staining based assay; assay type: functional, organism-based; conditions: dose 500.0 µg/kg
[8] = system: Mus musculus; assay: Anti-fibrotic effect in CCl4-induced hepatic fibrosis C57BL/6 mouse model assessed as inhibition of collagen deposition at 500 ug/kg, po five times a week for 2 weeks by Hematoxylin-Eosin (H&E) staining based assay; assay type: functional, organism-based; conditions: dose 500.0 µg/kg
[9] = target: T1, Vitamin D3 receptor (Homo sapiens); assay: Agonist activity at Vitamin D receptor in human LX-2 cells assessed as transcriptional activity by measuring induction of CYP24A expression at 0.5 uM by RT-qPCR analysis relative to control; assay type: cell-based; conditions: filed as agonist
[10] = system: Mus musculus; assay: Anti-fibrotic effect in improving CCl4-induced hepatic fibrosis C57BL/6 mouse model assessed as uniform liver parenchyma at 500 ug/kg, po five times a week for 2 weeks by qualitative ultrasound imaging analysis; assay type: functional, organism-based; conditions: dose 500.0 µg/kg
[11] = target: T1, Vitamin D3 receptor (Homo sapiens); assay: Agonist activity at Vitamin D receptor in HEK293 cells assessed as receptor transactivation incubated for 48 hrs by dual-luciferase reporter assay; assay type: cell-based; conditions: filed as agonist, dose 0.01-1 µM
[12] = system: Mus musculus; assay: Anti-fibrotic effect in CCl4-induced hepatic fibrosis C57BL/6 mouse model assessed as inhibition of proliferation of fibrous tissue at 500 ug/kg, po five times a week for 2 weeks by Masson's Trichrome […] staining based assay; assay type: functional, organism-based; conditions: dose 500.0 µg/kg
[13] = system: Mus musculus; assay: Anti-fibrotic effect in CCl4-induced hepatic fibrosis C57BL/6 mouse model assessed as inhibition of serum total bile acid (TBA) level at 500 ug/kg, po five times a week for 2 weeks; assay type: functional, organism-based; conditions: dose 500.0 µg/kg
[14] = Cytotoxicity against human LX-2 cells by CCK-8 assay; assay type: toxicity, cell-based
[15] = system: LX-2; assay: Inhibition of TGF-beta1 induced human LX-2 cell activation assessed as inhibition of alpha-SMA expression at 0.5 uM by Western blot analysis relative to control; assay type: functional, cell-based
[16] = system: Mus musculus; assay: Anti-fibrotic effect in CCl4-induced hepatic fibrosis C57BL/6 mouse model assessed as inhibition of collagen deposition at 500 ug/kg, po five times a week for 2 weeks by Masson's Trichrome […] staining based assay; assay type: functional, organism-based; conditions: dose 500.0 µg/kg
[17] = system: Mus musculus; assay: Anti-fibrotic effect in CCl4-induced hepatic fibrosis C57BL/6 mouse model assessed as inhibition of serum ALT level at 500 ug/kg, po five times a week for 2 weeks; assay type: functional, organism-based; conditions: dose 500.0 µg/kg
[18] = system: Mus musculus; assay: Anti-fibrotic effect in CCl4-induced hepatic fibrosis C57BL/6 mouse model assessed as decrease in inflammatory cell infiltration at 500 ug/kg, po five times a week for 2 weeks by Masson's Trichrome staining based assay; assay type: functional, organism-based; conditions: dose 500.0 µg/kg
[19] = system: Mus musculus; assay: Anti-fibrotic effect in CCl4-induced hepatic fibrosis C57BL/6 mouse model assessed as inhibition of serum AST level at 500 ug/kg, po five times a week for 2 weeks; assay type: functional, organism-based; conditions: dose 500.0 µg/kg
[20] = system: Mus musculus; assay: Anti-fibrotic effect in CCl4-induced hepatic fibrosis C57BL/6 mouse model assessed as reduction in hepatic fibrosis lesions at 500 ug/kg, po five times a week for 2 weeks by Hematoxylin-Eosin (H&E) staining based assay; assay type: functional, organism-based; conditions: dose 500.0 µg/kg
[21] = system: Mus musculus; assay: Anti-fibrotic effect in CCl4-induced hepatic fibrosis C57BL/6 mouse model assessed as reduction the lesions at 500 ug/kg, po five times a week for 2 weeks by Hematoxylin-Eosin (H&E) staining based assay; assay type: functional, organism-based; conditions: dose 500.0 µg/kg
[22] = system: Mus musculus; assay: Anti-fibrotic effect in CCl4-induced hepatic fibrosis C57BL/6 mouse model assessed as decrease in inflammatory cell infiltration at 500 ug/kg, po five times a week for 2 weeks by Hematoxylin-Eosin (H&E) staining based assay; assay type: functional, organism-based; conditions: dose 500.0 µg/kg

SMILES: C=C1/C(=C\C=C2/CCC[C@]3(C)[C@@H]([C@H](C)/C=C/[C@@H](O)C4CC4)CC[C@@H]23)C[C@@H](O)C[C@@H]1O [CALCIPOTRIENE]
Activity [1]: Non-Toxic

RBA [3]: 54.3% | Activity [9]: Active | Activity [11]: Dose-Dependent Effect
SMILES: CCC(Oc1ccc(CO)c(CO)c1)c1cccc(OCCCC(O)(CC)CC)c1 (configuration not stated)
Activity [2]: Active | Activity [4]: Active | inhibition [5]: Active | Activity [6]: Active | Activity [7]: Active | Activity [8]: Active | Activity [10]: Active | Activity [12]: Active | Activity [13]: Active | IC50 [14]: > 30 µM | inhibition [15]: Active | Activity [16]: Active | Activity [17]: Active | Activity [18]: Active | Activity [19]: Active | Activity [20]: Active | Activity [21]: Active | Activity [22]: Active
